Measured values published in PMC12018770, “DEAD‐Box Helicase 6 Blockade in Brain‐Derived Aβ Oligomers From Alzheimer's Disease Patients Attenuates Neurotoxicity” (MedComm, 2025).
Entries after “also recorded” stand apart in the source; their conditions may differ.

Columns and labels:
[1] = tested on: GST‐DDX6; test: GST pulldown with GST‐DDX6; assay type: binding; settings: 150 µg GST‐DDX6, 300 µg recombinant Aβ oligomers or negative control protein, overnight; n = 3
Procedure: We conducted a series of in vitro experiments to investigate the mechanism by which DDX6 blockade affects Aβ oligomer neurotoxicity.
In accordance with the protocol provided in the GST pulldown kit (#21516; Thermo Fisher Scientific), 150 µg of GST‐DDX6 protein were rotated with 50 µL of glutathione agarose resin at 4°C for 3 h. The resin was then incubated overnight with 300 µg of recombinant Aβ oligomers or a negative control protein, washed with pH 8.0 glutathione elution buffer, and validated by dot blotting.

[2] = tested on: human‐derived Aβ oligomers; test: Co-immunoprecipitation / Western blotting of protein-Aβ oligomer interaction in AD brain extracts; assay type: binding; settings: IgG isotype control
Text: After rigorous data analysis with SAINTexpress, four proteins (DDX6, DSP, JUP, and HRNR) were identified as potential Aβ oligomer‐binding partners. To validate these findings, we selected DSP and DDX6 as positive controls for co‐IP analysis; tau proteins were used as negative controls. Input samples, IP, co‐IP extracts, and IgG controls were adjusted to ensure equal amounts of protein for comparison. […] The IP enrichment effect was substantial for Aβ oligomers, DDX6, DSP, and tau proteins. In the co‐IP extracts for DDX6 and DSP, Aβ oligomers were detected at approximately 55 and 30 kDa, respectively (indicated by “ [drawing 1] ”). […] Isotype control IgG was used to exclude nonspecific binding (Figure 2A).
A Co‐IP kit (Thermo Fisher Scientific; #26149, USA) was used for the assay. Antibodies (2 µg) were crosslinked to a reinforced AminoLink coupling resin (20 µL of beads) and immobilized on a Pierce spin column at room temperature. Protein extracts (1 mg) were added to the spin column and incubated overnight at 4°C with rotation. The spin column was then transferred to a new collection tube, and 60 µL of elution buffer (pH 2.8, containing tertiary amine) was added. The column was centrifuged, and the eluate was analyzed to detect the presence of the target protein.
Protein concentrations in the co‐IP extracts were measured using a bicinchoninic acid assay (#23225, Thermo Fisher Scientific, USA). For each sample, 20 µL of protein was loaded, with the following amounts of human‐derived Aβ oligomers (AD1–AD6) used: 1.8 µg, 2.0 µg, 1.9 µg, 1.6 µg, 2.0 µg, and 1.8 µg, respectively. Equivalent amounts of co‐IP extracts were loaded into the remaining lanes. A 5× loading buffer was added to the protein samples to achieve a final concentration of 1×, and the samples were incubated at 95°C for 5 min [44]. […]
B. The PVDF membrane was probed with the Aβ oligomer antibody (A11), indicating enrichment of Aβ oligomers (post-IP) with bands observed at 55 kDa and 30 kDa. Aβ oligomers were detected in the co-IP products of DDX6 (indicated by “✸”). […]

[3] = tested on: human‐derived Aβ oligomers; test: AP-MS with SAINTexpress scoring of binding to human‐derived Aβ oligomers; settings: score 0 to 1; criteria SAINT score > 0.5 and fold change ≥ 2; AD1–AD6, n = 6
Text: Not all identified proteins bind to Aβ oligomers. Therefore, we used the SAINTexpress statistical method to screen for proteins most likely to interact with human‐derived Aβ oligomers. SAINTexpress assigns probability scores to factors interacting with target proteins, providing a value between 0 and 1, where higher scores indicate a greater likelihood of interaction with Aβ oligomers. Based on the analyzed results, we plotted the fold change on the x‐axis and SAINT scores on the y‐axis, with each point representing a protein. Proteins meeting the criteria of a SAINT score > 0.5 and fold change ≥ 2 were considered the most likely to bind Aβ oligomers (highlighted in red). Through rigorous analysis, we identified four proteins as binding partners (Figure 1C): DDX6 (SAINT score = 0.5783), DSP (SAINT score = 0.6608), JUP (SAINT score = 0.5846), and HRNR (SAINT score = 0.5246).
An aliquot of each peptide mixture was loaded onto a trap column (in‐house‐fabricated column packed with a reversed‐phase ReproSil‐Pur C18‐AQ resin, 150 µm × 15 cm, C18, 3 µm, 100 Å, Dr. Maisch GmbH, Germany) connected to an analytical column (EASY‐Spray column, […] × 75 µm ID, PepMap RSLC C18, 2 µm, 100 Å, Thermo Scientific, USA) using the autosampler of an EASY‐nLC 1200 HPLC system (Thermo Fisher Scientific). The peptides were eluted using a gradient (solvent A: 0.1% formic acid in water; solvent B: 80% acetonitrile/0.1% formic acid in water; Sigma, Germany) directly into a Q Exactive Hybrid Quadrupole‐Orbitrap mass spectrometer (Thermo Fisher Scientific). The gradient program was as follows: 4%–8% solvent B over 2 min, 8%–28% solvent B over 43 min, 28%–40% solvent B over 10 min, 40%–95% solvent B over 1 min, and 95% solvent B for 10 min. The following mass spectrometry parameters were used: spray voltage, 2.2 kV; capillary temperature, 270°C; MS resolution, 70,000 at 400 m/z; MS precursor m/z range, 300.0–1800.0 m/z; activation type, high‐energy collision dissociation; normalized collision energy, 28.0; activation time, […]; and data‐dependent MS/MS, top 20 most intense peptide ions selected based on the preview scan in the Orbitrap.
The raw MS files (Figure S5) were analyzed and searched against species‐specific protein databases using MaxQuant (v1.6.2.10). The following parameters were applied: maximum missed cleavages, 2; precursor ion mass tolerance, 20 ppm; and MS/MS tolerance, 20 ppm. Peptides and proteins were filtered to achieve a false discovery rate of < 1% using a target‐decoy database strategy, and only proteins with at least two unique peptides were reported. […] SAINT is a probabilistic method for scoring protein–protein interactions in AP‐MS experiments, enabling the identification of proteins most likely to interact with target proteins. […]

[4] = tested on: Aβ oligomers in AD brain; test: IHC colocalization with Aβ oligomers in AD brain sections; parameters: species or system human; settings: AD7–AD10, n = 4; fluorescence scan over 120 µm
Text: To further validate the binding interactions between Aβ oligomers and the four proteins, we performed immunohistochemistry (IHC) on brain sections from four AD patients (AD7–AD10). We analyzed the colocalization of Aβ oligomers (red) with DDX6, JUP, HRNR, and DSP (all green), as well as 4',6‐diamidino‐2‐phenylindole (DAPI)‐stained nuclei (blue). […] We also performed fluorescence intensity scanning from left to right across stained brain tissue slices (120 µm). […] The combined results from co‐IP and IHC confirm that these four proteins can bind to Aβ oligomers.
Sections were dewaxed, subjected to antigen retrieval, and blocked. They were then incubated with primary antibody (1:500) overnight at 4°C, followed by secondary antibody (1:200). Nuclei were stained with DAPI (Beyotime; C1002, Shanghai, China) for 10 min in the dark.

[5] = tested on: Aβ fibrillar plaques; test: ThT‐binding assay, fluorescence microscopy of fibrillar plaques; assay type: biochemical; settings: DDX6 10 µM, Aβ42 20 µM, Aβ42 oligomers 5 µM; n = 3

Substance	pulldown by GST‐DDX6 [1]	binding to Aβ oligomers by co‐IP [2]	SAINT score [3]	colocalization with Aβ oligomers [4]	fluorescence intensity by microscopy (in words) [5]
Aβ42 oligomers: oligomers prepared from Aβ42 peptide (Abcam #ab120301), PBS, 72 h at 4°C	successfully pulled down	–	–	–	–
DEAD‐box helicase 6 [DDX6]	–	DDX6 and DSP were also detected in Aβ oligomer co‐IP extracts; also recorded: DDX6 was detected in the co-IP products of Aβ oligomers	0.5783	strong colocalization	showed no effects on fluorescence intensity
